Measurements reported in ChEMBL document CHEMBL5143585, “Discovery and characterization of benzyloxy piperidine based dopamine 4 receptor antagonists” (Bioorg Med Chem Lett, 2022).
pIC50, pKi: −log10 of the molar value.

Assays:
D(4) dopamine receptor = target: T1, D(4) dopamine receptor (Homo sapiens, UniProt P21917); assay: Displacement of [3H]N-methylspiperone from human D4 receptor expressed in HEK293 cell membrane by competitive inhibition based analysis; format: cell membranes
T1 sequence (P21917 whole entry): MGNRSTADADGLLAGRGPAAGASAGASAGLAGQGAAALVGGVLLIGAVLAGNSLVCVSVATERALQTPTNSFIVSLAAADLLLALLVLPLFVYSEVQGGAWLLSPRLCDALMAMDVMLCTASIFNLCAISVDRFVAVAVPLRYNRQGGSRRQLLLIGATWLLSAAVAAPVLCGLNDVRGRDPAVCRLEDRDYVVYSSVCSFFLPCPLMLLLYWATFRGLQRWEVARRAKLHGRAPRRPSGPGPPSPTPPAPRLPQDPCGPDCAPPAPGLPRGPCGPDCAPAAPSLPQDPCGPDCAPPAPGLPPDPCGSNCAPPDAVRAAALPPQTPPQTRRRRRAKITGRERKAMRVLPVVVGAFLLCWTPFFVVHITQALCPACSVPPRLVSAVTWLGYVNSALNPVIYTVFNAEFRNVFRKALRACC

D(1A) dopamine receptor = D(1A) dopamine receptor (Homo sapiens, UniProt P21728); assay: Displacement of [3H]-SCH23390 from human D1 receptor expressed in HEK293 cell membrane at 10 uM by competitive inhibition based analysis; format: cell membranes
Sequence of D(1A) dopamine receptor (P21728 whole entry): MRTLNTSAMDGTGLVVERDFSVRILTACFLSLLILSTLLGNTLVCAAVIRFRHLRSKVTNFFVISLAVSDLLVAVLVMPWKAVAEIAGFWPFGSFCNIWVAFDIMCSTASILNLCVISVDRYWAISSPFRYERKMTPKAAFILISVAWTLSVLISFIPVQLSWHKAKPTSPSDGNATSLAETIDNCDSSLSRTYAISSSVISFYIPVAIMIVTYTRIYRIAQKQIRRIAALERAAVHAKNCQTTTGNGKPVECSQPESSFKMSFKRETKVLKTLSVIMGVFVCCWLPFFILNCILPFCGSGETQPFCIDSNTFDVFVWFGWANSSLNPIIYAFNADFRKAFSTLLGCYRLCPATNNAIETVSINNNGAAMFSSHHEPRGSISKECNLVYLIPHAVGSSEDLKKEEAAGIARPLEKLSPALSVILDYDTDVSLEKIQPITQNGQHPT

[1] = target: D(2) dopamine receptor (Homo sapiens) (UniProt P14416); assay: Displacement of [3H]N-methylspiperone from human D2 receptor expressed in HEK293 cell membrane at 10 uM by competitive inhibition based analysis; format: cell membranes
Sequence of D(2) dopamine receptor (Homo sapiens) (P14416 whole entry): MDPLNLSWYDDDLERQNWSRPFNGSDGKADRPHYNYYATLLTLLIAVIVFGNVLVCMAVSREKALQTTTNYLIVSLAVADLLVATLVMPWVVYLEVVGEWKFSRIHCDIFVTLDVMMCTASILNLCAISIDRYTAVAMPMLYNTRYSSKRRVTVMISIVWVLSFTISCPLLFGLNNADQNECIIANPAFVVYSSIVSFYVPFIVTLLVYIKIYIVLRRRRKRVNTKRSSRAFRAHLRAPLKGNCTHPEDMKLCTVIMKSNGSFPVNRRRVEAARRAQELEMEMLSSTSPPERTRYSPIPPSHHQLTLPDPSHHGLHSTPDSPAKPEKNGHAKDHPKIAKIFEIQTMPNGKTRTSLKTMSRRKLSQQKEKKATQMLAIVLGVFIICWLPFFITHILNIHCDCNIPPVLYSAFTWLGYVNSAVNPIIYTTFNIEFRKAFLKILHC

D(3) dopamine receptor [2] = target: T2, D(3) dopamine receptor (Homo sapiens, UniProt P35462); assay: Displacement of [3H]N-methylspiperone from human D3 receptor expressed in HEK293 cell membrane at 10 uM by competitive inhibition based analysis; format: cell membranes
T2 sequence (P35462 whole entry): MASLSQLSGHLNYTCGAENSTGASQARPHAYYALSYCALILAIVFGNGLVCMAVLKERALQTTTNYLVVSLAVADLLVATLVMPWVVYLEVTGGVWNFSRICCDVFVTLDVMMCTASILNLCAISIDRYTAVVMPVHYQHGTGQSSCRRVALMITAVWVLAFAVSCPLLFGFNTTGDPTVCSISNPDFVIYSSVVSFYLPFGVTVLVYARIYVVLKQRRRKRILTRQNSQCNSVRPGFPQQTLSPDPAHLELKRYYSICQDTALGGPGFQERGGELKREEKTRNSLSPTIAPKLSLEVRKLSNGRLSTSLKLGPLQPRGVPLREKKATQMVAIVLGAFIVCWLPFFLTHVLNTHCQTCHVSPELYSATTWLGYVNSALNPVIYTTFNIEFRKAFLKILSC

D(3) dopamine receptor [3] = target: T2, D(3) dopamine receptor; assay: Displacement of [3H]N-methylspiperone from human D3 receptor expressed in HEK293 cell membrane by competitive inhibition based analysis; format: cell membranes
D(1B) dopamine receptor [4] = target: T3, D(1B) dopamine receptor (Homo sapiens, UniProt P21918); assay: Displacement of [3H]-SCH23390 from human D5 receptor expressed in HEK293 cell membrane at 10 uM by competitive inhibition based analysis; format: cell membranes
T3 sequence (P21918 whole entry): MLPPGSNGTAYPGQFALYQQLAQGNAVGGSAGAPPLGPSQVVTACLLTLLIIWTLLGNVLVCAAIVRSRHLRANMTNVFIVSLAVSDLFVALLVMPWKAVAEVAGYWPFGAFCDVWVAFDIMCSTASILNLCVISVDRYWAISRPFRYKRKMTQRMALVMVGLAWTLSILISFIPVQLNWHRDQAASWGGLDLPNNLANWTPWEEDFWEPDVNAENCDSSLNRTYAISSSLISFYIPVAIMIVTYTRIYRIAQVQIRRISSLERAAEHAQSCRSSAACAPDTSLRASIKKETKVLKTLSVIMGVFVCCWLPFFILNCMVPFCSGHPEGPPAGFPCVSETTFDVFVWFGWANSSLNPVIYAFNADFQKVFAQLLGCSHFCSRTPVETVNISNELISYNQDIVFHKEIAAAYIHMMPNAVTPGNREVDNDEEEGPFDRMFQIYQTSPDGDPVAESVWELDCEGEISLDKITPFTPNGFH

[5] = Protein binding in human plasma assessed as unbound fraction; format: ADME, cell-free
[6] = Protein binding in mouse plasma assessed as unbound fraction; format: ADME, cell-free
[7] = Half-life in rat at 0.25 mg/kg, iv measured for 24 hrs; format: ADME, organism-based; details: in vivo
[8] = Initial plasma concentration in rat at 0.25 mg/kg, iv; format: ADME, organism-based
[9] = Volume of distribution at steady state in rat at 0.25 mg/kg, iv measured for 24 hrs; format: ADME, organism-based; details: in vivo
[10] = AUC in rat at 0.25 mg/kg, iv measured for 24 hrs; format: ADME, organism-based; parameters: time 24 hrs, dose 0.25 mg/kg, route iv; details: in vivo
[11] = Plasma concentration in rat at 0.25 mg/kg, iv measured on day 2 at 0.25 hrs post-dose; format: ADME, organism-based; details: time 2 day
[12] = Drug uptake in rat brain at 0.25 mg/kg, iv measured on day 2 at 0.25 hrs post-dose; format: ADME, organism-based; details: time 2 day, read-out: Drug uptake
[13] = Ratio of drug level in rat brain to plasma at 0.25 mg/kg, iv measured on day 2 at 0.25 hrs post-dose; format: ADME, organism-based; details: time 2 day, read-out: BPR
D(1B) dopamine receptor [14] = target: T3, D(1B) dopamine receptor; assay: Displacement of [3H]-SCH23390 from human D5 receptor expressed in HEK293 cell membrane by competitive inhibition based analysis; format: cell membranes
[15] = target: T4, D(4) dopamine receptor (Homo sapiens) (UniProt P21917); assay: Displacement of [3H]N-methylspiperone from human D4 receptor expressed in HEK293 cell membrane at 10 uM by competitive inhibition based analysis; format: cell membranes
T4 sequence (whole entry): T1 sequence (P21917 whole entry)

| Structure (SMILES) | pIC50 (D(4) dopamine receptor) | pKi (D(4) dopamine receptor) | inhibition (D(1A) dopamine receptor) [%] | inhibition [1] [%] | inhibition (D(3) dopamine receptor [2]) [%] | pKi (D(3) dopamine receptor [3]) | inhibition (D(1B) dopamine receptor [4]) [%] | Fu [5] [%] | Fu [6] [%] | t1/2 [7] [h] | C0 ([8]; in vivo, iv, 0.25 mg/kg) [ng/mL] | Vdss [9] [L/kg] | AUC [10] [ng·h/mL] | concentration at 48 h [11] [ng/mL] | concentration at 48 h [12] [ng/g] | Kp at 48 h [13] | inhibition (D(3) dopamine receptor [2]; filed as antagonist) [%] | also measured |
| --- | --- | --- | --- | --- | --- | --- | --- | --- | --- | --- | --- | --- | --- | --- | --- | --- | --- | --- |
| Fc1ccc(COC2CCN(Cc3ccc4[nH]cnc4c3)CC2)cc1F | 5.37 | 5.37 | < 50 | < 50 | – | 5.39 | < 50 | 22.9 | 40.1 | 1.2 | – | 19.2 | 65.6 | 7 | 112 | 16.1 | 57 | – |
| Cn1cnc2cc(CN3CCC(OCc4cccc(C(F)(F)F)c4)CC3)ccc21 | 6.19 | 6.19 | – | – | – | – | – | 1 | 5.7 | 1.1 | 60.2 | 6.3 | 149 | 30.1 | 214 | 7.2 | – | – |
| Fc1cc(COC2CCN(Cc3ccc4[nH]cnc4c3)CC2)ccc1Cl | 5.82 | 5.82 | < 50 | < 50 | < 50 | – | < 50 | 7.7 | 17.1 | 1.1 | 23.5 | 13.6 | 79.9 | 14.1 | 139 | 9.9 | – | – |
| Fc1cccc(CO[C@H]2CCCN(c3ccc(Cl)cc3)C2)c1 | – | – | < 50 | < 50 | – | < 5.00 | < 50 | – | – | – | – | – | – | – | – | – | 71 | inhibition [15]: -10% |
| FC(F)(F)c1cccc(COC2CCN(Cc3ccc4[nH]cnc4c3)CC2)c1 | 5.74 | 5.74 | < 50 | < 50 | – | 6.02 | < 50 | 2.5 | 16.1 | – | – | – | – | – | – | – | 83 | – |
| Cc1cc(CO[C@H]2CCCN(c3ccc(Cl)cc3)C2)ccc1F | – | – | < 50 | < 50 | < 50 | – | – | – | – | – | – | – | – | – | – | – | – | inhibition [15]: 4.7%; inhibition (D(1B) dopamine receptor [4]; filed as antagonist): 66%; pKi (D(1B) dopamine receptor [14]): < 5.00 |

Continued by rising pIC50 (D(4) dopamine receptor), values first:

| pIC50 (D(4) dopamine receptor) | pKi (D(4) dopamine receptor) | inhibition (D(1A) dopamine receptor) [%] | inhibition [1] [%] | inhibition (D(3) dopamine receptor [2]) [%] | pKi (D(3) dopamine receptor [3]) | inhibition (D(1B) dopamine receptor [4]) [%] | Fu [5] [%] | Fu [6] [%] | t1/2 [7] [h] | C0 ([8]; in vivo, iv, 0.25 mg/kg) [ng/mL] | Vdss [9] [L/kg] | AUC [10] [ng·h/mL] | concentration at 48 h [11] [ng/mL] | concentration at 48 h [12] [ng/g] | Kp at 48 h [13] | inhibition (D(3) dopamine receptor [2]; filed as antagonist) [%] | Structure (SMILES) | also measured |
| --- | --- | --- | --- | --- | --- | --- | --- | --- | --- | --- | --- | --- | --- | --- | --- | --- | --- | --- |
| 6.47 | 6.47 | < 50 | < 50 | < 50 | – | < 50 | 6.2 | 42.8 | 0.9 | 49.4 | 6.4 | 142 | 34.9 | 232 | 6.6 | – | Fc1ccc(COC2CCN(Cc3cn4ccccc4n3)CC2)cc1F | – |
| 6.49 | 6.49 | < 50 | < 50 | – | 6.25 | – | – | – | – | – | – | – | – | – | – | 76 | Fc1cc(COC2CCN(Cc3cc4ccc(Cl)cc4[nH]3)CC2)ccc1Cl | inhibition (D(1B) dopamine receptor [4]; filed as antagonist): 65% |
| 6.52 | 6.51 | < 50 | < 50 | < 50 | 6.05 | < 50 | 5.2 | 3.6 | – | – | – | – | – | – | – | – | Cc1nc(CN2CCC(OCc3cccc(C(F)(F)F)c3)CC2)c2ccccn12 | – |
| 6.52 | 6.52 | < 50 | < 50 | – | 5.61 | < 50 | 0.3 | 1.5 | 4.4 | 5.5 | 5.5 | 747 | 45.8 | 134 | 2.9 | 67 | Cc1c(Cl)cccc1NC(=O)CN1CCC(OCc2ccc(F)c(F)c2)CC1 | – |
| 6.56 | 6.56 | < 50 | < 50 | < 50 | – | < 50 | 3.6 | 16.6 | 1.4 | 32.5 | 12.9 | 112 | 30.6 | 355 | 11.6 | – | Cn1ncc2cc(CN3CCC(OCc4ccc(F)c(F)c4)CC3)ccc21 | – |
| 6.70 | 6.70 | < 50 | < 50 | – | 6.03 | < 50 | 1 | 5.7 | – | – | – | – | – | – | – | 92 | Cn1ncc2cc(CN3CCC(OCc4cccc(C(F)(F)F)c4)CC3)ccc21 | – |
| 6.83 | 6.83 | < 50 | < 50 | – | 6.02 | – | < 0.3 | 0.4 | 1.8 | – | – | 126 | 19.4 | 562 | 28.9 | 73 | Fc1ccc(COC2CCN(Cc3cc4ccc(Cl)cc4[nH]3)CC2)cc1F | inhibition (D(1B) dopamine receptor [4]; filed as antagonist): 64%; pKi (D(1B) dopamine receptor [14]): 5.40; C0 ([8]; plasma, read-out: C0): 12.6 ng/mL |
